Source: patent US6284910A, “Farnesyl pyrophosphate analogs” (University of Kentucky Research Foundation, priority 1999, dated 2001)
Entries after “also recorded” stand apart in the source; their conditions may differ.

Columns and labels:
[1] = target: T1, squalene synthase (Bos taurus, UniProt Q32KR6); experiment: Inhibition of squalene synthase activity in bovine brain microsomes; type: biochemical; conditions: 0.05 mM [^3 H]FPP
T1 construct: squalene synthase activity present in bovine brain microsome fractions; from tissue; host or cells: bovine brain microsomes (crude)
T1 sequence (Q32KR6 1-417): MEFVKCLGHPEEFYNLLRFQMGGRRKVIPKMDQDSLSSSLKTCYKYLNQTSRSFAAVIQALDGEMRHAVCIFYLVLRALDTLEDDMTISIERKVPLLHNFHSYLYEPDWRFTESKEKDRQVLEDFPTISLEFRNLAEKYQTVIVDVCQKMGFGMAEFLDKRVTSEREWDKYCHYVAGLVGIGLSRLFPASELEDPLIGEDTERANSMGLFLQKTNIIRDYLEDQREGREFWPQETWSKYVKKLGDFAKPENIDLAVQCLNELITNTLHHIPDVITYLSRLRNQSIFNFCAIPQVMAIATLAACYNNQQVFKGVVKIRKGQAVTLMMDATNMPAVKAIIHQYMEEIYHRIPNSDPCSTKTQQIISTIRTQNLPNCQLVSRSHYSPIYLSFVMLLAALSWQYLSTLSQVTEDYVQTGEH
Description: FIG. 7. Inhibition of Squalene Synthase by AGPP. The initial rates of squalene synthase activity were determined from bovine brain microsomal preparations in the presence of the indicated concentration of unlabeled AGPP (filled squares) or unlabeled FPP (open triangles) under the in vitro conditions described in "Experimental Procedures." Crude bovine brain microsomes and 0.05 mM [^3 H]FPP (105 cpm/pmol) and unlabeled AGPP and FPP were added at the indicated concentrations and incubated for 30 min. at 37° C. The reactions were terminated with 40% (wt/vol) KOH and 95% ethanol. Authentic carrier squalene (20 μg) was added and the reactions extracted with petroleum ether. The amount of labeled lipid formed was measured by scintillation counting. […]
Assay for Squalene Synthase Activity--Initial rates of squalene synthase activity present in bovine brain microsome fractions were assayed as previously described (19) with minor modifications. […] The remaining sample was analyzed on Silica gel G 60 TLC plates by developing with hexane (33). […]
FIG. 7 depicts inhibition of Squalene Synthase by AGPP. The initial rates of squalene synthase activity were determined from bovine brain microsomal preparations in the presence of the indicated concentration of unlabeled AGPP (filled squares) or unlabeled FPP (open triangles) (77). […] The amount of labeled lipid formed was measured by scintillation counting.

[2] = target: FTase (Rattus norvegicus, UniProt Q02293+Q04631); experiment: Inhibition of FTase-catalyzed transfer of [^3 H]AGPP to p21^H-ras; type: biochemical; set-up: H-Ras is only the protein substrate; conditions: non-radiolabeled compound, time and concentration dependent transfer
Description: Assay for Farnesyltransferase Activity--Farnesyltransferase activity was assayed by measuring the amount of [^3 H]farnesyl or [^3 H]anilinogeranyl transferred from [^3 H]FPP or [^3 H]AGPP to recombinant p21^H-ras, as described previously (31). Unless otherwise stated, each reaction mixture contained the following components in a final volume of 25 μl: 50 mM Tris (pH 7.4), 20 mM KCl, 0.2% octyl β-glucopyranoside, 1 mM dithiothreitol, 10-20 ng recombinant FTase, 5 μM p21^Ha-ras, 3 mM MgCl2, 50 μM ZnCl2, and 0.6 μM [^3 H]FPP (33,000 dpm/pmol; American Radiochemical Co.) or 0.1-5 μM [^3 H]AGPP (37,400 dpm/pmol). Following incubation for the indicated times at 37° C., the amount of [^3 H]prenyl transferred was measured by ethanol-HCl precipitation and filtration on glass fiber filters with modification as previously described (19). A blank value was determined in parallel incubation mixtures containing no enzyme. This blank value was subtracted from each reaction before calculating pmol [^3 H]prenyl transferred.
The observed inhibition kinetics could be a manifestation of the ability of AGPP to act as an alternative substrate for FTase. To evaluate the potential of AGPP to serve as a substrate of FTase, [^3 H]-AGPP was prepared by a similar route as described above, incorporating tritium with a specific activity of 17 Ci/mmol (synthesis to be reported elsewhere). […] The incorporated radioactivity was detected as a band of the expected molecular weight of farnesylated p21^H-ras on SDS-polyacrylamide gels (FIG. 4A, inset). […] The concentration of [^3 H]AGPP that gave half-maximal reaction velocity was approximately 0.5 μM (FIG. 4B).

## C/C(=C\COP(=O)(O)OP(=O)(O)O)CC/C=C(\C)CNc1ccccc1 [AGPP, (E,E)-8-Aniline-3,7-dimethyl-2,6-octadiene pyrophosphate]
[1]
  inhibition of squalene synthase, in words: does not Inhibit Squalene Synthase Activity; also recorded: far less potent in vitro inhibitor of squalene synthase activity than FPP; also recorded: far less potent in vitro inhibitor of squalene synthase activity than for FTase
[1]; 37° C., 30 min
  IC50: 1 mM
[2]
  inhibition of transfer of [^3 H]AGPP to p21^H-ras, in words: found to inhibit
